From patent publication US9409952B2, “Peptide-compound cyclization method” (Chugai Seiyaku Kabushiki Kaisha, priority 2011, dated 2016)
Where two headings read alike, the source gives them in different places. Starred links: 1 amine or outer side, 2 acyl side, 3 side chain; linkers in the order of their positions; H or OH if unused. Positions of bridges follow the written chain, without caps; N, C: chain ends. Non-standard residues stand in square brackets, D forms with d. Residues, ends and D or L forms follow the SMILES beside them. ξ: configuration not given here. *: point of attachment. Phe(3-(CH2)4CO) = O=C([C@H](Cc1cccc(CCCCC(=O)[*:3])c1)N[*:1])[*:2]; NMeF = CN[C@@H](Cc1ccccc1)C(=O)O; NMeGABA = CN(CCCC(=O)[*:2])[*:1]; NMeI = CC[C@H](C)[C@H](NC)C(=O)O; NMeβAla = CN(CCC(=O)[*:2])[*:1]; NMeξIle = CC[C@H](C)C(NC)C(=O)O; NMeL = CN[C@@H](CC(C)C)C(=O)O; NMeV = CN[C@H](C(=O)O)C(C)C; NMeA = CN[C@@H](C)C(=O)O; Piperidide = C1CCN(*)CC1; dNMeA = CN[C@H](C)C(=O)O; β3hA = C[C@H](N)CC(=O)O; ξL = CC(C)CC(N)C(=O)O; Sar = CNCC(=O)O; tBu = CC(C)(C)*

What was measured:
[1] = PAMPA (parallel artificial membrane permeability assay); assay type: in vitro ADME; settings: PAMPA
Summary of the method: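 Artificial membrane was 10% (w/v) egg lecithin plus 0.5% (w/v) cholesterol in dodecane on a PVDF filter. A 10 mM DMSO stock was added at 0.5% (v/v) to donor buffer (50 mM MOPSO, pH 6.5, 5.0% glycocholic acid). After 18 h at 37 °C, LC/MS or LC/UV gave donor and acceptor levels for Pe.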

[2] = Metabolic stability in human hepatic microsome; assay type: in vitro ADME; settings: microsomes
[3] = membrane permeation rate (Pe), 50 mM MOPSO buffer pH 6.5 with 5.0% glycocholic acid, 37° C., 18 hours, read-out: iPAMPA Pe
[4] = pH 7.4, human hepatic microsome, NADPH(+), read-out: CL NADPH(+)

SMILES	Papp at 18 hours, 50 µM [1, 3] [nm/s]	microsomal CLint at 1 uM [2, 4] [µL/min/mg]	Papp at 18 hours, 50 µM ([1]; pH 6.5) [nm/s]	microsomal CLint at 1 uM ([2]; human, pH 7.4, CL NADPH(+)) [µL/min/mg]
CC[C@H](C)[C@@H]1NC(=O)[C@H](C(C)C)N(C)C(=O)[C@H](C)N(C)C(=O)[C@H]([C@@H](C)O)NC(=O)[C@@H](C)N(C)C(=O)C[C@@H](C(=O)N2CCCCC2)NC(=O)[C@H](C)NC(=O)[C@H](Cc2ccccc2)N(C)C(=O)CN(C)C(=O)[C@H](CC(C)C)N(C)C1=O [DP-485] ([dNMeA]T[NMeA][NMeV]I[NMeL][Sar][NMeF]AD-Piperidide; lactam N-10)	59	45	–	–
CC(C)C[C@@H]1NC(=O)[C@H](Cc2c[nH]cn2)NC(=O)[C@H](Cc2ccccc2)N(C)C(=O)[C@H](CC(C)C)NC(=O)[C@H](CC(C)C)N(C)C(=O)[C@H](Cc2ccccc2)NC(=O)[C@H](CC(C)C)N(C)C(=O)[C@H](CC(C)C)N(C)C(=O)[C@H](Cc2ccccc2)NC(=O)CN(C)C(=O)C[C@@H](C(=O)N(C)[C@@H](Cc2ccccc2)C(=O)N[C@@H](C)C(=O)N2CCCCC2)NC1=O [DP-592] ([Sar]F[NMeL][NMeL]F[NMeL]L[NMeF]HLD[NMeF]A-Piperidide; lactam N-11)	1.8	5	–	–
CC(C)C[C@@H]1NC(=O)[C@@H](C)NC(=O)C[C@@H](C(=O)N2CCCCC2)NC(=O)[C@H](CC(C)C)N(C)C(=O)[C@H](C)N(C)C(=O)[C@H](CC(C)C)N(C)C(=O)[C@H](CC(C)C)N(C)C(=O)[C@H](Cc2ccccc2)N(C)C(=O)[C@H](C)NC(=O)[C@H](Cc2ccccc2)N(C)C(=O)[C@H]([C@@H](C)O)NC1=O [DP-139] ([dA]LT[NMeF]A[NMeF][NMeL][NMeL][NMeA][NMeL]D-Piperidide; lactam N-11)	230	22	–	–
CC[C@H](C)[C@H]1C(=O)N(C)[C@@H](CC(C)C)C(=O)N[C@H](C(=O)N2CCCCC2)Cc2cccc(c2)CCCCC(=O)N[C@@H]([C@@H](C)O)C(=O)N(C)[C@@H](C)C(=O)N(C)[C@@H](Cc2ccccc2)C(=O)N(C)[C@@H](Cc2ccccc2)C(=O)N(C)[C@@H](CC(C)C)C(=O)NCC(=O)N1C [DP-840] (T[NMeA][NMeF][NMeF][NMeL]G[NMeI][NMeL][Phe(3-(CH2)4CO)]-Piperidide; lactam N-9)	640	357	–	–
CC(C)C[C@H]1C(=O)N(C)[C@@H](Cc2ccccc2)C(=O)N(C)[C@@H](C)C(=O)N[C@@H](Cc2ccccc2)C(=O)N[C@H](C(=O)N(C)[C@@H](Cc2ccccc2)C(=O)N[C@@H](C)C(=O)N2CCCCC2)CC(=O)N(C)CC(=O)N[C@@H]([C@@H](C)O)C(=O)N(C)CC(=O)N[C@@H](C(C)C)C(=O)N1C [DP-316] ([Sar]T[Sar]V[NMeL][NMeF][NMeA]FD[NMeF]A-Piperidide; lactam N-9)	–	–	120	35
CC[C@H](C)[C@H](NC(=O)[C@@H](NC(=O)[C@H](Cc1ccccc1)NC(=O)[C@H](CC(C)C)N(C)C(=O)[C@@H]1CC(=O)N(C)CCC(=O)N(C)[C@@H](C)C(=O)N[C@@H](CC(C)C)C(=O)N[C@@H]([C@@H](C)O)C(=O)N(C)[C@@H](Cc2ccccc2)C(=O)N(C)[C@@H](CC(C)C)C(=O)N(C)[C@@H](Cc2ccccc2)C(=O)N1)C(C)C)C(=O)N1CCCCC1 [DP-930] ([NMeβAla][NMeA]LT[NMeF][NMeL][NMeF]D[NMeL]FVI-Piperidide; lactam N-8)	4.6	168	–	–
CC(C)C[C@H]1C(=O)N[C@H](C(=O)N2CCCCC2)CC(=O)N(C)[C@@H](C)C(=O)N(C)[C@@H](Cc2ccccc2)C(=O)N(C)[C@@H](CC(C)C)C(=O)N[C@@H]([C@@H](C)O)C(=O)N(C)CC(=O)N[C@@H](COC(C)(C)C)C(=O)N1C [DP-697] ([NMeA][NMeF][NMeL]T[Sar]S(tBu)[NMeL]D-Piperidide; lactam N-8)	350	87	–	–
CC[C@H](C)[C@H](NC(=O)[C@H](CC(C)C)NC(=O)[C@H](Cc1ccccc1)NC(=O)[C@@H]1CC(=O)N[C@@H](C)C(=O)N[C@@H]([C@@H](C)CC)C(=O)N(C)[C@@H](C)C(=O)N(C)[C@@H](Cc2ccccc2)C(=O)N[C@@H]([C@@H](C)O)C(=O)N(C)[C@@H](Cc2ccccc2)C(=O)N[C@@H](CC(C)C)C(=O)N2CCC[C@H]2C(=O)N1)C(=O)N[C@@H](C)C(=O)N1CCCCC1 [DP-666] (AI[NMeA][NMeF]T[NMeF]LPDFLIA-Piperidide; lactam N-9)	–	–	30	74
CC[C@H](C)[C@@H]1NC(=O)[C@H](CC(C)C)N(C)C(=O)[C@H](Cc2ccccc2)N(C)C(=O)[C@@H](C(C)C)NC(=O)C[C@H](C)NC(=O)[C@H](CC(C)C)N(C)C(=O)[C@H](C)N(C)C(=O)[C@H]([C@@H](C)O)NC(=O)[C@H](Cc2ccccc2)N(C)C(=O)[C@H](C)N(C)C1=O [DP-780] (cyclo(I[NMeA][NMeF]T[NMeA][NMeL][β3hA][dV][NMeF][NMeL]))	–	–	410	249
CC[C@H](C)C1C(=O)N(C)[C@@H](Cc2ccccc2)C(=O)N[C@H](C(=O)N2CCCCC2)CC(=O)N(C)CC(=O)NC(CC(C)C)C(=O)N(C)[C@@H](Cc2ccccc2)C(=O)N(C)[C@@H](CC(C)C)C(=O)N[C@@H](C)C(=O)N(C)[C@@H](C(C)C)C(=O)N(C)[C@@H](C)C(=O)N[C@@H]([C@@H](C)O)C(=O)N(C)CC(=O)N1C (stereo partly drawn) [DP-64] ([Sar][ξL][NMeF][NMeL]A[NMeV][NMeA]T[Sar][NMeξIle][NMeF]D-Piperidide; lactam N-12)	–	–	240	25
CC[C@H](C)[C@H]1C(=O)N(C)[C@@H](C(C)C)C(=O)N(C)[C@@H](CC(C)C)C(=O)N[C@@H]([C@@H](C)O)C(=O)N[C@H](C(=O)N2CCCCC2)CC(=O)N(C)CCCC(=O)N[C@@H](Cc2ccccc2)C(=O)N(C)[C@@H](CC(C)C)C(=O)N(C)[C@@H](C)C(=O)N(C)[C@@H](Cc2ccccc2)C(=O)N[C@@H](C)C(=O)N1C [DP-250] ([NMeGABA]F[NMeL][NMeA][NMeF]A[NMeI][NMeV][NMeL]TD-Piperidide; lactam N-11)	290	42	–	–
CC(C)C[C@H]1C(=O)NCC(=O)N[C@H](C(=O)N2CCCCC2)CC(=O)N(C)[C@@H](C)C(=O)N[C@@H]([C@@H](C)O)C(=O)N(C)[C@@H](C)C(=O)N(C)[C@@H](Cc2ccccc2)C(=O)N[C@@H](COC(C)(C)C)C(=O)N(C)[C@@H](Cc2ccccc2)C(=O)N1C [DP-79] ([NMeA]T[NMeA][NMeF]S(tBu)[NMeF][NMeL]GD-Piperidide; lactam N-9)	–	–	280	145
CC[C@H](C)[C@@H]1NC(=O)[C@@H](C)NC(=O)C[C@@H](C(=O)N(C)[C@@H](Cc2ccccc2)C(=O)N[C@@H](C)C(=O)N2CCCCC2)NC(=O)[C@H](Cc2ccccc2)N(C)C(=O)[C@H](C)NC(=O)[C@H](CC(C)C)N(C)C(=O)[C@H](C)N(C)C(=O)[C@H]([C@@H](C)O)NC(=O)[C@H](C(C)C)N(C)C(=O)[C@H](C)N(C)C1=O [DP-491] ([dA]I[NMeA][NMeV]T[NMeA][NMeL]A[NMeF]D[NMeF]A-Piperidide; lactam N-10)	180	39	–	–
CC[C@H](C)[C@H]1C(=O)N[C@@H](COC(C)(C)C)C(=O)N[C@H](C(=O)N2CCCCC2)CC(=O)N(C)[C@@H](C)C(=O)N(C)[C@@H](Cc2ccccc2)C(=O)N(C)CC(=O)N(C)[C@@H](CC(C)C)C(=O)N[C@@H]([C@@H](C)O)C(=O)N(C)[C@@H](C)C(=O)N(C)[C@@H](CC(C)C)C(=O)N1C [DP-138] ([NMeA][NMeF][Sar][NMeL]T[NMeA][NMeL][NMeI]S(tBu)D-Piperidide; lactam N-10)	310	48	–	–
CC(C)C[C@@H]1NC(=O)[C@H](CC(C)C)N(C)C(=O)[C@H]([C@@H](C)O)NC(=O)[C@H](Cc2ccccc2)N(C)C(=O)CN(C)C(=O)[C@H](CC(C)C)N(C)C(=O)[C@@H](C(C)C)NC(=O)C[C@@H](C(=O)N2CCCCC2)NC1=O [DP-714] ([dV][NMeL][Sar][NMeF]T[NMeL]LD-Piperidide; lactam N-8)	310	145	–	–
CC(C)C[C@H]1C(=O)N[C@@H](COC(C)(C)C)C(=O)N[C@H](C(=O)N2CCCCC2)CC(=O)N(C)[C@H](C)C(=O)N(C)[C@@H](C)C(=O)N(C)[C@@H](Cc2ccccc2)C(=O)N(C)[C@@H](CC(C)C)C(=O)N[C@@H]([C@@H](C)O)C(=O)N(C)[C@@H](C)C(=O)N1C [DP-160] ([dNMeA][NMeA][NMeF][NMeL]T[NMeA][NMeL]S(tBu)D-Piperidide; lactam N-9)	370	68	–	–
CC[C@H](C)[C@@H]1NC(=O)[C@H](C(C)C)N(C)C(=O)[C@@H](C)N(C)C(=O)C[C@@H](C(=O)N2CCCCC2)NC(=O)[C@H](CC(C)C)NC(=O)[C@H](Cc2ccccc2)N(C)C(=O)[C@H](CC(C)C)N(C)C(=O)[C@H](Cc2ccccc2)NC(=O)[C@H]([C@@H](C)O)NC(=O)[C@H](CC(C)C)NC1=O [DP-339] ([dNMeA][NMeV]ILTF[NMeL][NMeF]LD-Piperidide; lactam N-10)	180	213	–	–
CC[C@H](C)[C@@H]1NC(=O)[C@H](C)N(C)C(=O)[C@H](CC(C)C)N(C)C(=O)CN(C)C(=O)[C@H]([C@@H](C)O)NC(=O)[C@H](C(C)C)N(C)C(=O)[C@H](C)N(C)C(=O)[C@H](Cc2ccccc2)NC(=O)[C@@H](C)NC(=O)C[C@@H](C(=O)N(C)[C@@H](Cc2ccccc2)C(=O)N(C)[C@@H](Cc2ccccc2)C(=O)N[C@@H](C)C(=O)N2CCCCC2)NC1=O [DP-502] ([dA]F[NMeA][NMeV]T[Sar][NMeL][NMeA]ID[NMeF][NMeF]A-Piperidide; lactam N-10)	170	19	–	–
